Assays:
c-Cbl (residues 47-435) = c-Cbl (residues 47-435) (Homo sapiens (Human), UniProt P22681); experiment: c-Cbl SPR assay; type: binding; details: 20° C.
Outline: (§1)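 Where a chaser compound was used, % compound bound was calculated as (1−(RUT/RUT0))*100 relative to a prior chaser injection and fitted to a single exponential for kd. The single cycle titration (max 500 nM) was then fitted with kd held fixed.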

c-Cbl = c-Cbl (Homo sapiens (Human), UniProt P22681); experiment: C-Cbl LCK Ub TR-FRET assay (C-cbl Lck HTRF); type: biochemical
Sequence of c-Cbl (P22681 47-435): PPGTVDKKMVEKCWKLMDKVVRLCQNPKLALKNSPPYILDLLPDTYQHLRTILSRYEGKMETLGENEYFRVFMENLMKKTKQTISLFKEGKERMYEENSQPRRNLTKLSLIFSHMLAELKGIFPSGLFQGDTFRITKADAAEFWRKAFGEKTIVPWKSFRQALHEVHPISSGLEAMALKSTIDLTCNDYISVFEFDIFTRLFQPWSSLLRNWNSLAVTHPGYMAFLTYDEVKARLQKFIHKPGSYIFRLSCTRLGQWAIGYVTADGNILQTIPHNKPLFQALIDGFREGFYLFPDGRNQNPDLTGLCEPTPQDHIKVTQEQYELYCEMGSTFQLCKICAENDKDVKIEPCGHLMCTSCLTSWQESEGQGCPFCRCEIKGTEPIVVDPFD
Outline: (§2)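 Signal is read once the detection mix has stood 20 min at ambient temperature. Curves are anchored by DMSO as maximum and by omission of LCK as minimum.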

[1] = target: Human Cbl-b (residues 40-426) (Homo sapiens (Human), UniProt Q13191); experiment: Cbl-b SPR assay; type: binding; details: for Fold of selectivity: C-cbl SPR Kd vs Cbl-b SPR Kd; for Kd: SPR, 20° C.
Sequence of Human Cbl-b (residues 40-426) (Q13191 40-426): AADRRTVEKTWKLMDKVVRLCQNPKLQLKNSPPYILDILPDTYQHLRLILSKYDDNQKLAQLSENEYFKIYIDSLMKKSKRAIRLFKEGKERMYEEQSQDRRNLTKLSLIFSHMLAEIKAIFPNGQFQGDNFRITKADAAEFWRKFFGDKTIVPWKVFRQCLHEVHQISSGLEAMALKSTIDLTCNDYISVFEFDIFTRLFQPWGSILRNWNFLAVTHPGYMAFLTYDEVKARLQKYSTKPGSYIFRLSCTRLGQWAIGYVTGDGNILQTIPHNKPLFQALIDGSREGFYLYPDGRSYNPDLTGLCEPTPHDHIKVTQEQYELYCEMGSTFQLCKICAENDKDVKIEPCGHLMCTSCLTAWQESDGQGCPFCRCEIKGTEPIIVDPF
Outline: as §1

Cbl-b = Cbl-b (Homo sapiens (Human), UniProt Q13191); experiment: Cbl-b LCK Ub TR-FRET assay (Cbl-b Lck HTRF); type: biochemical; details: for IC50: Cbl-b LCK Ub TR-FRET; for (fold-selectivity) Cbl-b and C-Cbl Selectivity / fold-selectivity (Cbl-b over C-cbl): ratio C-cbl Lck HTRF IC50 / Cbl-b Lck HTRF IC50
Sequence of Cbl-b (Q13191 40-426): as above
Outline: as §2

Sequence of c-Cbl (residues 47-435) (P22681 47-435): as the sequence (P22681 47-435) above

SMILES | Kd (c-Cbl (residues 47-435)) | IC50 (c-Cbl) | Fold of selectivity [1] | Kd [1] | IC50 (Cbl-b; Example 121) | (fold-selectivity) Cbl-b and C-Cbl Selectivity (Cbl-b) | IC50 (Cbl-b) | fold-selectivity (Cbl-b over C-cbl) (Cbl-b)
CO[C@H]1C[C@](c2cccc(N3Cc4c(cc(CN[C@@H]5C[C@H]5C(C)(F)F)cc4C(F)(F)F)C3=O)c2)(c2nncn2C)C1 (single isomer, unassigned) [Compound 506] | 450 nM | 180 nM | 8.1× | 55 nM | 22 nM | 8.0x |  | 
Cn1cnnc1[C@H](C[C@H]1COCCO1)c1cccc(N2Cc3c(cc(CNC4(C)CCC4)cc3C(F)(F)F)C2=O)c1 [Compound 294, 2-(3-((R)-2-((S)-1,4-dioxan-2-yl)-1-(4-methyl-4H-1,2,4-triazol-3-yl)ethyl)phenyl)-6-(((1-methylcyclobutyl)amino)methyl)-4-(trifluoromethyl)isoindolin-1-one] | 720 nM | 660 nM | 1.3× | 530 nM |  |  | 400 nM | 1.6x
CC1(NCc2cc3c(c(C(F)(F)F)c2)CN(c2cccc([C@@H](C4COC4)n4ccnn4)c2)C3=O)CCC1 (single isomer, unassigned) [Compound 436] | 3500 nM | 2400 nM | 5.3× | 600 nM |  | 4.2x |  | 
CCOc1cc(N2Cc3c(cc(CNC4(C)CCC4)cc3C(F)(F)F)C2=O)cc([C@]2(c3nncn3C)C[C@@H](OC)C2)c1 [Compound 203, 2-(3-ethoxy-5-((1s,3s)-3-methoxy-1-(4-methyl-4H-1,2,4-triazol-3-yl)cyclobutyl)phenyl)-6-(((1-methylcyclobutyl)amino)methyl)-4-(trifluoromethyl)isoindolin-1-one] | 21 nM | 38 nM | 3.3× | 6.4 nM |  |  | 18 nM | 2.1x
CC(C)[C@H]1CN(C)CCN1Cc1cc2c(c(C(F)(F)F)c1)CN(c1cccc([C@]3(c4nncn4C)C[C@H](C#N)C3)c1)C2=O (single isomer, unassigned) [Compound 63] | 19 nM | 14.2 nM | 5.1× | 3.7 nM |  |  | 7.9 nM | (1.8x)
Cn1cnnc1[C@@H](c1cccc(N2Cc3c(cc([C@@H](NC4(C)CCC4)C4CCC4)cc3C(F)(F)F)C2=O)c1)C1COC1 (single isomer, unassigned) [Compound 433] | 86 nM | 78 nM | 10× | 8.5 nM | 17 nM | 4.7x |  | 
CO[C@H]1C[C@](c2cc(C)cc(N3Cc4c(cc(CNC5(C)CCC5)cc4C(F)(F)F)C3=O)c2)(c2nncn2C)C1 [Compound 230, 2-(3-((1r,3r)-3-methoxy-1-(4-methyl-4H-1,2,4-triazol-3-yl)cyclobutyl)-5-methylphenyl)-6-(((1-methylcyclobutyl)amino)methyl)-4-(trifluoromethyl)isoindolin-1-one] | 170 nM | 290 nM | 2.3× | 75 nM |  |  | 190 nM | 1.5x
CC[C@@H](NC1(C)CCC1)c1cc2c(c(C(F)(F)F)c1)CN(c1cccc([C@@H](c3nncn3C)C3COC3)c1)C2=O (single isomer, unassigned) [Compound 316] | 1300 nM | 3100 nM | 7.5× | 170 nM |  |  | 270 nM | 11x
Cn1cnnc1[C@@H](c1cccc(N2Cc3c(cc(CNCC(C)(C)C)cc3C(F)(F)F)C2=O)c1)C1COC1 (single isomer, unassigned) [Compound 468] | 12 nM | 7.5 nM | 7× | 1.6 nM | 5.2 nM | 1.4x |  | 
Cn1cnnc1C1(c2cccc(N3Cc4c(cc(CNC5(C)CCC5)cc4C(F)(F)F)C3=O)c2)CCC1 [Compound 279, 2-(3-(1-(4-methyl-4H-1,2,4-triazol-3-yl)cyclobutyl)phenyl)-6-(((1-methylcyclobutyl)amino)methyl)-4-(trifluoromethyl)isoindolin-1-one] | 12 nM | 9.3 nM | 6.4× | 1.8 nM |  |  | 6.6 nM | 1.4x
CO[C@H]1C[C@](c2cccc(N3Cc4c(cc([C@@H](C)NC5(C)CCC5)cc4C(F)(F)F)C3=O)c2)(c2nncn2C)C1 (single isomer, unassigned) [Compound 184] | 2.5 nM | 8.3 nM | 6.3× | 0.42 nM |  |  | 7.6 nM | 1.1x
